{
  "source": "patent US11840686B2",
  "about": "“Modulation of prekallikrein (PKK) expression” (Ionis Pharmaceuticals, Inc., priority 2013, dated 2023)",
  "note": "Strand notation (5' to 3'): a small letter for the sugar, then the base; units joined by * are phosphorothioate-linked, units joined directly phosphodiester-linked; [ ] holds rarer units or linkages, { } end groups; capitals alone tell only the bases. e = 2'-O-(2-methoxyethyl) (MOE); k = constrained ethyl (cEt); [5mC] = 5-methylcytosine; d = 2'-deoxy (DNA)",
  "data": [
    {"system": "human PKK mRNA", "test": "Antisense inhibition of human PKK mRNA in HepaRG cells, 1,000 nM, MOE/deoxy/cEt oligonucleotides (Example 3)", "assay_type": "cell-based", "conditions": "Table 21 experiment; HepaRG cells, electroporation with 1,000 nM antisense oligonucleotide, approx. 24 hours; PKK mRNA by RT-PCR (RTS3454), relative to untreated control cells", "procedure": "Additional antisense oligonucleotides were designed targeting a PKK nucleic acid and were tested for their effects on PKK mRNA in vitro.\nThe chimeric antisense oligonucleotides in the tables below were designed as deoxy, MOE and cEt gapmers. The gapmers are 16 nucleosides in length wherein the nucleoside have either a MOE sugar modification, a cEt sugar modification, or a deoxy modification. The ‘Chemistry’ column describes the sugar modifications of each oligonucleotide. ‘k’ indicates an cEt sugar modification; the number indicates the number of deoxynucleosides; otherwise, indicates a deoxynucleoside; and ‘e’ indicates a 2′-O-methoxyethyl modification. The internucleoside linkages throughout each gapmer are phosphorothioate linkages. All cytosine residues throughout each oligonucleotide are 5-methylcytosines. “Start site” indicates the 5′-most nucleoside to which the gapmer is targeted in the human gene sequence. “Stop site” indicates the 3′-most nucleoside to which the gapmer is targeted in the human gene sequence.\nCultured HepaRG™ cells at a density of 20,000 cells per well were transfected using electroporation with 1,000 nM antisense oligonucleotide. After a treatment period of approximately 24 hours, RNA was isolated from the cells and PKK mRNA levels were measured by quantitative real-time PCR. Human primer probe set RTS3454 was used to measure mRNA levels. ISIS 531231 was also included in this assay. PKK mRNA levels were adjusted according to total RNA content, as measured by RIBOGREEN®. The antisense oligonucleotides were tested in a series of experiments that had similar culture conditions. Results are presented as percent inhibition of PKK, relative to untreated control cells.", "units": {"% inhibition": "%"}, "values": [
      {"substance": "547777 (antisense eT*eT*kG*d[5mC]*dT*dT*d[5mC]*dT*dT*dG*dG*dA*dG*kG*kT*eG) [compound 547777]", "% inhibition": 69},
      {"substance": "547779 (antisense eA*eT*kT*dG*d[5mC]*dT*dT*d[5mC]*dT*dT*dG*dG*dA*kG*kG*eT) [compound 547779]", "% inhibition": 41},
      {"substance": "547781 (antisense e[5mC]*eA*kA*dT*dT*dG*d[5mC]*dT*dT*d[5mC]*dT*dT*dG*kG*kA*eG) [compound 547781]", "% inhibition": 49},
      {"substance": "547783 (antisense e[5mC]*eA*k[5mC]*dA*dA*dT*dT*dG*d[5mC]*dT*dT*d[5mC]*dT*kT*kG*eG) [compound 547783]", "% inhibition": 48},
      {"substance": "547784 (antisense eG*e[5mC]*kT*dT*dG*dA*dA*dT*dA*dA*dA*dA*dT*k[5mC]*kA*eT) [compound 547784]", "% inhibition": 46},
      {"substance": "547785 (antisense eG*eT*kT*dG*d[5mC]*dT*dT*dG*d[5mC]*dT*dT*dG*dA*kA*kT*eA) [compound 547785]", "% inhibition": 48},
      {"substance": "547786 (antisense eA*eG*kT*dT*dG*d[5mC]*dT*dT*dG*d[5mC]*dT*dT*dG*kA*kA*eT) [compound 547786]", "% inhibition": 44},
      {"substance": "547787 (antisense eA*eA*kG*dT*dT*dG*d[5mC]*dT*dT*dG*d[5mC]*dT*dT*kG*kA*eA) [compound 547787]", "% inhibition": 22},
      {"substance": "547788 (antisense eT*eA*kA*dG*dT*dT*dG*d[5mC]*dT*dT*dG*d[5mC]*dT*kT*kG*eA) [compound 547788]", "% inhibition": 49},
      {"substance": "547789 (antisense eG*eA*kA*dA*dT*dA*dA*dG*dT*dT*dG*d[5mC]*dT*kT*kG*e[5mC]) [compound 547789]", "% inhibition": 20},
      {"substance": "547790 (antisense eT*eG*kA*dA*dA*dT*dA*dA*dG*dT*dT*dG*d[5mC]*kT*kT*eG) [compound 547790]", "% inhibition": 23},
      {"substance": "547791 (antisense eA*e[5mC]*kT*dG*dT*dA*dG*d[5mC]*dA*dA*dA*d[5mC]*dA*kA*kG*eG) [compound 547791]", "% inhibition": 49},
      {"substance": "547792 (antisense eT*e[5mC]*k[5mC]*dA*d[5mC]*dA*dG*dG*dA*dA*dA*d[5mC]*dT*kG*kT*eA) [compound 547792]", "% inhibition": 31},
      {"substance": "547793 (antisense eA*eT*k[5mC]*d[5mC]*dA*d[5mC]*dA*dG*dG*dA*dA*dA*d[5mC]*kT*kG*eT) [compound 547793]", "% inhibition": 16},
      {"substance": "547794 (antisense eT*e[5mC]*kA*dT*dA*dG*dA*dG*dT*dT*dG*dA*dG*kT*k[5mC]*eA) [compound 547794]", "% inhibition": 49},
      {"substance": "547795 (antisense eA*e[5mC]*k[5mC]*dT*d[5mC]*dT*dG*dA*dA*dG*dA*dA*dG*kG*k[5mC]*eG) [compound 547795]", "% inhibition": 66},
      {"substance": "547796 (antisense eA*eT*k[5mC]*d[5mC]*d[5mC]*d[5mC]*dA*d[5mC]*d[5mC]*dT*d[5mC]*dT*dG*kA*kA*eG) [compound 547796]", "% inhibition": 35},
      {"substance": "547797 (antisense eA*eG*k[5mC]*dT*dA*d[5mC]*dA*dT*d[5mC]*d[5mC]*d[5mC]*d[5mC]*dA*k[5mC]*k[5mC]*eT) [compound 547797]", "% inhibition": 33},
      {"substance": "547799 (eG*eA*kA*dG*d[5mC]*dT*dA*d[5mC]*dA*dT*d[5mC]*d[5mC]*d[5mC]*k[5mC]*kA*e[5mC]; antisense) [compound 547799]", "% inhibition": 41},
      {"substance": "547800 (eA*e[5mC]*kA*dT*dG*dG*dA*dA*dG*d[5mC]*dT*dA*d[5mC]*kA*kT*e[5mC]; antisense) [compound 547800]", "% inhibition": 20},
      {"substance": "547801 (eT*eA*k[5mC]*dA*dT*dG*dG*dA*dA*dG*d[5mC]*dT*dA*k[5mC]*kA*eT; antisense) [compound 547801]", "% inhibition": 11},
      {"substance": "547802 (eG*eT*kA*d[5mC]*dA*dT*dG*dG*dA*dA*dG*d[5mC]*dT*kA*k[5mC]*eA; antisense) [compound 547802]", "% inhibition": 41},
      {"substance": "547803 (eT*eG*kT*dA*d[5mC]*dA*dT*dG*dG*dA*dA*dG*d[5mC]*kT*kA*e[5mC]; antisense) [compound 547803]", "% inhibition": 0},
      {"substance": "547804 (eG*eT*kG*dT*dA*d[5mC]*dA*dT*dG*dG*dA*dA*dG*k[5mC]*kT*eA; antisense) [compound 547804]", "% inhibition": 22},
      {"substance": "547805 (eG*eG*kG*dT*dG*dT*dA*d[5mC]*dA*dT*dG*dG*dA*kA*kG*e[5mC]; antisense) [compound 547805]", "% inhibition": 54},
      {"substance": "547809 (eT*e[5mC]*kA*dT*d[5mC]*dT*dG*dG*d[5mC]*dA*dG*dT*dA*kT*kT*eG; antisense) [compound 547809]", "% inhibition": 33},
      {"substance": "547810 (e[5mC]*e[5mC]*kT*d[5mC]*dA*dT*d[5mC]*dT*dG*dG*d[5mC]*dA*dG*kT*kA*eT; antisense) [compound 547810]", "% inhibition": 60},
      {"substance": "547811 (eA*e[5mC]*k[5mC]*dT*d[5mC]*dA*dT*d[5mC]*dT*dG*dG*d[5mC]*dA*kG*kT*eA; antisense) [compound 547811]", "% inhibition": 49},
      {"substance": "547812 (eG*eT*kG*d[5mC]*dA*d[5mC]*d[5mC]*dT*d[5mC]*dA*dT*d[5mC]*dT*kG*kG*e[5mC]; antisense) [compound 547812]", "% inhibition": 51},
      {"substance": "547813 (eG*eG*kT*dG*dG*dA*dA*dT*dG*dT*dG*d[5mC]*dA*k[5mC]*k[5mC]*eT; antisense) [compound 547813]", "% inhibition": 34},
      {"substance": "547814 (eG*eG*kG*dT*dG*dG*dA*dA*dT*dG*dT*dG*d[5mC]*kA*k[5mC]*e[5mC]; antisense) [compound 547814]", "% inhibition": 60},
      {"substance": "547815 (eA*eA*k[5mC]*dT*dT*dG*d[5mC]*dT*dG*dG*dA*dA*dG*kA*kA*eA; antisense) [compound 547815]", "% inhibition": 3},
      {"substance": "547816 (eG*eA*kA*d[5mC]*dT*dT*dG*d[5mC]*dT*dG*dG*dA*dA*kG*kA*eA; antisense) [compound 547816]", "% inhibition": 45},
      {"substance": "547817 (eT*eG*kA*dA*d[5mC]*dT*dT*dG*d[5mC]*dT*dG*dG*dA*kA*kG*eA; antisense) [compound 547817]", "% inhibition": 18},
      {"substance": "547818 (eG*eA*kT*dT*dG*dA*dA*d[5mC]*dT*dT*dG*d[5mC]*dT*kG*kG*eA; antisense) [compound 547818]", "% inhibition": 4},
      {"substance": "547819 (e[5mC]*eA*kT*dT*dG*dA*dT*dT*dG*dA*dA*d[5mC]*dT*kT*kG*e[5mC]; antisense) [compound 547819]", "% inhibition": 11},
      {"substance": "547820 (eT*e[5mC]*kA*dT*dT*dG*dA*dT*dT*dG*dA*dA*d[5mC]*kT*kT*eG; antisense) [compound 547820]", "% inhibition": 0},
      {"substance": "547821 (e[5mC]*eA*kA*dA*d[5mC]*d[5mC]*dT*dT*dT*dT*d[5mC]*dT*d[5mC]*k[5mC]*kA*eT; antisense) [compound 547821]", "% inhibition": 44},
      {"substance": "547822 (eG*e[5mC]*kA*dA*d[5mC]*d[5mC]*dA*dA*dA*d[5mC]*d[5mC]*dT*dT*kT*kT*e[5mC]; antisense) [compound 547822]", "% inhibition": 71},
      {"substance": "547823 (eA*eG*k[5mC]*dA*dA*d[5mC]*d[5mC]*dA*dA*dA*d[5mC]*d[5mC]*dT*kT*kT*eT; antisense) [compound 547823]", "% inhibition": 51},
      {"substance": "547825 (eT*e[5mC]*kG*dA*dT*dG*dT*dA*d[5mC]*dT*dT*dT*dT*kG*kG*e[5mC]; antisense) [compound 547825]", "% inhibition": 59}
    ]}
  ]
}
